In paper PMC12888861, “Antibacterial activity of enmetazobactam against Acinetobacter spp.: a molecular dissection of mechanism of action and resistance determinants” (Antimicrobial Agents and Chemotherapy, 2025):

What was measured:
[1] = system: carbapenem-resistant A. baumannii (CRAB) isolates (n = 67); assay: MIC, broth microdilution (EUCAST), carbapenem-resistant A. baumannii isolates; format: cell-based, Acinetobacter baumannii; conditions: ETZ fixed 8 mg/L in combinations; for MIC: Acinetobacter baumannii
From the text: (§1) The bacterial strains used in this study comprised 208 clinical isolates from the Spanish National Acinetobacter spp. 2020 Multicenter Collection, which was previously characterized in detail by our research group, including whole-genome sequencing, phylogenetics studies, clonal dynamics, and resistance mechanisms ([2], [29]). Additionally, a collection of A. baumannii ATCC 17978 transformants coding the blaOXA-23, blaOXA-24/40, blaOXA-51, blaOXA-58, blaOXA-143, and blaOXA-201 genes, previously constructed and described by our group ([30]), was used to determine the activity of enmetazobactam against strains carrying the main CHDLs of A. baumannii.
(§2) The antimicrobial susceptibility of the 208 Acinetobacter spp. isolates was assessed using the broth microdilution method, as described in the European Committee on Antimicrobial Susceptibility Testing (EUCAST) v.15 guidelines (http://www.eucast.org/clinical_breakpoints). […] MICs for enmetazobactam alone were assessed as well. […] Subsequently, MIC testing was also conducted with a collection of A. baumannii ATCC 17978 transformants expressing clinically relevant OXA-like carbapenemase genes.
(§3) The A. baumannii ATCC 19606 strain was used as the reference strain in all susceptibility experiments, in duplicate assays. Antibiotics were purchased from Sigma-Aldrich, except enmetazobactam and durlobactam, which were obtained from Advanz Pharma and MedChemExpress, respectively.

[2] = system: carbapenem-susceptible A. baumannii isolates (n = 54); assay: MIC, broth microdilution (EUCAST), carbapenem-susceptible A. baumannii isolates; format: cell-based, Acinetobacter baumannii; conditions: for MIC: in combinations ETZ fixed at 8 mg/L
From the text: as §1, §2, §3

[3] = Acinetobacter baumannii, carbapenem-susceptible A. baumannii isolates (n = 54), ETZ fixed 8 mg/L in combinations

C[C@@H](O)[C@H]1C(=O)N2C(C(=O)O)=C(SCCN=CN)C[C@H]12 [imipenem]
16 µg/mL: MIC ([1]; isolate Ab56, ST 1, ADC-75, OXA-69, OXA-23) | MIC ([1]; isolate Ab109, ST 1, ADC-75, OXA-69, OXA-23) | MIC ([1]; isolate Ab133, ST 2, ADC-30, OXA-66, OXA-58, TEM-12) | MIC ([1]; isolate Ab134, ST 2, ADC-30, OXA-66, OXA-58, TEM-12) | MIC ([1]; isolate Ab141, ST 745, ADC-30, OXA-66, OXA-58) | MIC ([1]; isolate Ab171, ST 2, ADC-30, OXA-66, OXA-23) | MIC ([1]; isolate Ab182, ST 2, ADC-30, OXA-66, OXA-23) | MIC ([1]; isolate Ab183, ST 2, ADC-30, OXA-66, OXA-23) | MIC ([1]; isolate Ab204, ST 2, ADC-30, OXA-66, OXA-23)
9.0: MIC distribution 8 ([1]; cumulative share of CRAB isolates (n = 67) at MIC 8 mg/L)
61.1: MIC distribution 0.12 [2]
0.25 µg/mL: MIC ([2]; Acinetobacter baumannii, isolate Ab34, ST 2182, ADC-2, OXA-130) | MIC ([2]; Acinetobacter baumannii, isolate Ab38, ST 866, ADC-2, OXA-385) | MIC ([2]; Acinetobacter baumannii, isolate Ab40, ST 2176, ADC-2, OXA-64) | MIC ([2]; Acinetobacter baumannii, isolate Ab50, ST 2176, ADC-2, OXA-64) | MIC ([2]; Acinetobacter baumannii, isolate Ab57, ST 1470, ADC-58, OXA-106) | MIC ([2]; Acinetobacter baumannii, isolate Ab58, ST 6, ADC-2, OXA-94) | MIC ([2]; Acinetobacter baumannii, isolate Ab62, ST 265, ADC-2, OXA-91) | MIC ([2]; Acinetobacter baumannii, isolate Ab67, ST 1, ADC-11, OXA-69) | MIC ([2]; Acinetobacter baumannii, isolate Ab110, ST 1623, ADC-3, OXA-70) | MIC ([2]; Acinetobacter baumannii, isolate Ab139, ST 54, ADC-like, OXA-365) | MIC ([2]; Acinetobacter baumannii, isolate Ab149, ST 1112, ADC-6, OXA-407) | MIC ([2]; Acinetobacter baumannii, isolate Ab150, ST 2184, ADC-like, OXA-64) | MIC ([2]; Acinetobacter baumannii, isolate Ab152, ST 132, ADC-2, OXA-120) | MIC ([2]; Acinetobacter baumannii, isolate Ab168, ST 1470, ADC-75, OXA-402) | MIC ([2]; Acinetobacter baumannii, isolate Ab185, ST 2, ADC-26, OXA-66) | MIC ([2]; Acinetobacter baumannii, isolate Ab190, ST 2186, ADC-6, OXA-413) | MIC ([2]; Acinetobacter baumannii, isolate Ab206, ST 2187, ADC-58, OXA-69) | MIC ([2]; Acinetobacter baumannii, isolate Ab209) | MIC ([2]; Acinetobacter baumannii, isolate Ab218) | MIC ([2]; Acinetobacter baumannii, isolate Ab220) | MIC90 [2, 3]
0: MIC distribution 0.12 ([1]; cumulative share of CRAB isolates (n = 67) at MIC 0.12 mg/L) | MIC distribution 0.25 ([1]; cumulative share of CRAB isolates (n = 67) at MIC 0.25 mg/L) | MIC distribution 0.5 ([1]; cumulative share of CRAB isolates (n = 67) at MIC 0.5 mg/L) | MIC distribution 1 ([1]; cumulative share of CRAB isolates (n = 67) at MIC 1 mg/L) | MIC distribution 2 ([1]; cumulative share of CRAB isolates (n = 67) at MIC 2 mg/L) | MIC distribution 4 ([1]; cumulative share of CRAB isolates (n = 67) at MIC 4 mg/L) | MIC distribution ≤0.06 ([1]; cumulative share of CRAB isolates (n = 67) at MIC ≤0.06 mg/L)
64 µg/mL: MIC ([1]; isolate Ab174, ST 2, ADC-30, OXA-66, OXA-23) | MIC ([1]; isolate Ab180, ST 2, ADC-30, OXA-66, OXA-24/40) | MIC ([1]; isolate Ab191, ST 2, ADC-30, OXA-66, OXA-23) | MIC ([1]; isolate Ab192, ST 2, ADC-30, OXA-66, OXA-23)
100: MIC distribution 64 ([1]; cumulative share of CRAB isolates (n = 67) at MIC 64 mg/L) | MIC distribution 1 ([2]; cumulative share of carbapenem-susceptible A. baumannii isolates (n = 54) at MIC 1 mg/L, ETZ fixed 8 mg/L in combinations) | MIC distribution 2 ([2]; cumulative share of carbapenem-susceptible A. baumannii isolates (n = 54) at MIC 2 mg/L, ETZ fixed 8 mg/L in combinations) | MIC distribution 4 ([2]; cumulative share of carbapenem-susceptible A. baumannii isolates (n = 54) at MIC 4 mg/L, ETZ fixed 8 mg/L in combinations) | MIC distribution 8 ([2]; cumulative share of carbapenem-susceptible A. baumannii isolates (n = 54) at MIC 8 mg/L, ETZ fixed 8 mg/L in combinations) | MIC distribution 16 ([2]; cumulative share of carbapenem-susceptible A. baumannii isolates (n = 54) at MIC 16 mg/L, ETZ fixed 8 mg/L in combinations) | MIC distribution ≥32 ([2]; cumulative share of carbapenem-susceptible A. baumannii isolates (n = 54) at MIC ≥32 mg/L, ETZ fixed 8 mg/L in combinations)
98.1: MIC distribution 0.25 ([2]; cumulative share of carbapenem-susceptible A. baumannii isolates (n = 54) at MIC 0.25 mg/L, ETZ fixed 8 mg/L in combinations) | MIC distribution 0.5 ([2]; cumulative share of carbapenem-susceptible A. baumannii isolates (n = 54) at MIC 0.5 mg/L, ETZ fixed 8 mg/L in combinations)
≤ 0.06 µg/mL: MIC ([2]; Acinetobacter baumannii, isolate Ab158, ST 2034, ADC-2, OXA-217) | MIC ([2]; Acinetobacter baumannii, isolate Ab163, ST 132, ADC-2, OXA-120) | MIC ([2]; Acinetobacter baumannii, isolate Ab172, ST 2185, ADC-5, OXA-217) | MIC ([2]; Acinetobacter baumannii, isolate Ab187, ST 105, ADC-2, OXA-430) | MIC ([2]; Acinetobacter baumannii, isolate Ab189, ST 1405, ADC-3, OXA-120) | MIC ([2]; Acinetobacter baumannii, isolate Ab193, ST 164, ADC-6, OXA-91)
32 µg/mL: MIC ([1]; isolate Ab83, ST 25, ADC-5, OXA-64, OXA-23) | MIC ([1]; isolate Ab137, ST 85, ADC-2, OXA-94, OXA-23) | MIC ([1]; isolate Ab138, ST 745, ADC-30, OXA-66, OXA-58) | MIC ([1]; isolate Ab140, ST 85, ADC-2, OXA-94, OXA-23) | MIC ([1]; isolate Ab144, ST 745, ADC-30, OXA-66, OXA-58) | MIC ([1]; isolate Ab169, ST 2, ADC-30, OXA-66, OXA-23) | MIC ([1]; isolate Ab173, ST 2, ISAba1-ADC-30, OXA-66, OXA-23) | MIC ([1]; isolate Ab179, ST 2, ADC-30, OXA-66, OXA-23) | MIC ([1]; isolate Ab181, ST 2, ADC-30, OXA-66, OXA-23) | MIC ([1]; isolate Ab184, ST 2, ADC-30, OXA-66, OXA-23) | MIC ([1]; isolate Ab186, ST 2, ADC-30, OXA-66, OXA-23) | MIC ([1]; isolate Ab194, ST 2, ADC-30, OXA-66, OXA-23) | MIC ([1]; isolate Ab199, ST 2, ADC-30, OXA-66, OXA-23) | MIC ([1]; isolate Ab201, ST 2, ADC-30, OXA-66, OXA-23)
1 µg/mL: MIC ([2]; Acinetobacter baumannii, isolate Ab142, ST 1, ADC-like, OXA-69)
11.1: MIC distribution ≤0.06 ([2]; cumulative share of carbapenem-susceptible A. baumannii isolates (n = 54) at MIC ≤0.06 mg/L, ETZ fixed 8 mg/L in combinations)
0.12 µg/mL: MIC ([2]; Acinetobacter baumannii, isolate Ab1, ST 164, ADC-6, OXA-91) | MIC ([2]; Acinetobacter baumannii, isolate Ab11, ST 239, ADC-2, OXA-51) | MIC ([2]; Acinetobacter baumannii, isolate Ab61, ST 1639, ADC-7, OXA-64) | MIC ([2]; Acinetobacter baumannii, isolate Ab79, ST 106, ADC-11, OXA-78) | MIC ([2]; Acinetobacter baumannii, isolate Ab80, ST 2182, ADC-6, OXA-208) | MIC ([2]; Acinetobacter baumannii, isolate Ab81, ST 25, ADC-79, OXA-64) | MIC ([2]; Acinetobacter baumannii, isolate Ab93, ST 25, ADC-79, OXA-64) | MIC ([2]; Acinetobacter baumannii, isolate Ab95, ST 582, ADC-5, OXA-317) | MIC ([2]; Acinetobacter baumannii, isolate Ab96, ST 582, ADC-5, OXA-317) | MIC ([2]; Acinetobacter baumannii, isolate Ab100, ST 145, ADC-58, OXA-343) | MIC ([2]; Acinetobacter baumannii, isolate Ab112, ST 193, ADC-like, OXA-120) | MIC ([2]; Acinetobacter baumannii, isolate Ab124, ST 2176, ADC-2, OXA-64) | MIC ([2]; Acinetobacter baumannii, isolate Ab127, ST 2176, ADC-2, OXA-64) | MIC ([2]; Acinetobacter baumannii, isolate Ab128, ST 2176, ADC-2, OXA-64) | MIC ([2]; Acinetobacter baumannii, isolate Ab130, ST 32, ADC-79, OXA-100) | MIC ([2]; Acinetobacter baumannii, isolate Ab131, ST 687, ADC-like, OXA-208) | MIC ([2]; Acinetobacter baumannii, isolate Ab132, ST 1112, ADC-79, OXA-89) | MIC ([2]; Acinetobacter baumannii, isolate Ab136, ST 2183, ADC-like, OXA-66) | MIC ([2]; Acinetobacter baumannii, isolate Ab143, ST 1328, ADC-76, OXA-408) | MIC ([2]; Acinetobacter baumannii, isolate Ab167, ST 1623, ADC-like, OXA-345) | MIC ([2]; Acinetobacter baumannii, isolate Ab170, ST 2110, ADC-4, OXA-338) | MIC ([2]; Acinetobacter baumannii, isolate Ab188, ST 203, ADC-6, OXA-217, PDC-1) | MIC ([2]; Acinetobacter baumannii, isolate Ab195, ST 1, ADC-11, OXA-69) | MIC ([2]; Acinetobacter baumannii, isolate Ab200, ST 1336, ADC-2, OXA-51) | MIC ([2]; Acinetobacter baumannii, isolate Ab202, ST 1, ADC-11, OXA-69) | MIC ([2]; Acinetobacter baumannii, isolate Ab203, ST 221, ADC-6, OXA-88) | MIC ([2]; Acinetobacter baumannii, isolate Ab213) | MIC50 [2, 3]
79.1: MIC distribution 32 ([1]; cumulative share of CRAB isolates (n = 67) at MIC 32 mg/L)
34.3: MIC distribution 16 ([1]; cumulative share of CRAB isolates (n = 67) at MIC 16 mg/L)
